# Assay results reported in patent US10328075B2, “Method of treatment and compounds for use therein” (Baker Heart and Diabetes Institute, priority 2015, dated 2019).
# Entries after “also recorded” stand apart in the source; their conditions may differ.
# Columns and labels:
# Format in all cases: cell-based
# [1] = target: T1, hFPR3 (Homo sapiens, UniProt P25089); experiment: Agonist responses (ERK1/2 phosphorylation) in hFPR3-CHO cells
# T1 construct: expressed in transfected cells
# T1 sequence (P25089 1-353): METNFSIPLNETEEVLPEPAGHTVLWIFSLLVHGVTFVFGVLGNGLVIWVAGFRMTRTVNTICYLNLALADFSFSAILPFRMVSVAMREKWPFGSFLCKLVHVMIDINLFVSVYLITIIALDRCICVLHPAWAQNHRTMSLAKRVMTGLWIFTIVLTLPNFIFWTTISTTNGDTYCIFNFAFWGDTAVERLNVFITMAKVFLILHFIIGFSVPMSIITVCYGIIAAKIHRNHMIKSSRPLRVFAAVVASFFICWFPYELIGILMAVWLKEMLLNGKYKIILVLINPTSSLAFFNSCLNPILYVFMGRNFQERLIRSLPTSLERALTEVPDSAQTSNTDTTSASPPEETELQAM
# Source text: cDNDA construct and generation of stable cell lines: cDNA in pcDNA3.1^+ encoding the human formyl peptide receptors (FPR) subtypes, hFPR1, hFPR2 and hFPR3 was obtained from Invitrogen. The sequences for 3 hFPR receptors were amplified by PCR and cloned into the Gateway entry vector, pDONR202™, using the BP clonase enzyme mix, according to the manufactures' instructions (Invitrogen Inc, Carlsbad, Calif., USA). All hFPR receptors constructs in pDONR201™ were subsequently transfected into the pEF5/FRT/V5/dest vector using the LR clonase enzyme mix (Invitrogen). Receptor constructs (pEF5/FRT/V5/dest) were used to transfect FIp-In CHO cells as described previously (Valant C et al., PNAS, 2014). Cells were selected using 500 μg/mL hydromycin to generate cell lines stably expressing each receptor construct. […]
# Measurement of extracellular signal regulated kinase 1 and 2 phosphorylation (pERK1/2): Initial ERK1/2 phosphorylation at Thr202/Tyr204 time-course experiments were performed to determine the time at which ERK1/2 phosphorylation was maximal after stimulation by each agonist. […] Plates were incubated in the dark at 37° C. for 1 h before the fluorescence signal was measured by a Fusion-α plate reader (PerkinElmer Life and Analytical Sciences, Foster city, CA, USA) with standard AlphaScreen settings. […]
# [2] = target: T2, hFPR1 (Homo sapiens, UniProt P21462); experiment: ERK1/2 phosphorylation (AlphaScreen SureFire) in hFPR1-FlpIn-CHO cells
# T2 construct: expressed in transfected cells
# T2 sequence (P21462 1-350): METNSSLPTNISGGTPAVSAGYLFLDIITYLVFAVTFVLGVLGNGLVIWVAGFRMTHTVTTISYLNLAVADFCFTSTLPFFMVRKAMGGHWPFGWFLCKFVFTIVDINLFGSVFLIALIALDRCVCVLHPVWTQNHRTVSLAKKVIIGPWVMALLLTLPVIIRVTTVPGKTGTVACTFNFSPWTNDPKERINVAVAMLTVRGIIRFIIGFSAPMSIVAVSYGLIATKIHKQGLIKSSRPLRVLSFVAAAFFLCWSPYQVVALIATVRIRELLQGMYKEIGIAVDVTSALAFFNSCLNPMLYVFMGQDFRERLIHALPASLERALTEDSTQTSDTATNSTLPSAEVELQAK
# Source text: (§1) cDNDA construct and generation of stable cell lines: cDNA in pcDNA3.1^+ encoding the human formyl peptide receptors (FPR) subtypes, hFPR1, hFPR2 and hFPR3 was obtained from Invitrogen. The sequences for 3 hFPR receptors were amplified by PCR and cloned into the Gateway entry vector, pDONR202™, using the BP clonase enzyme mix, according to the manufactures' instructions (Invitrogen Inc, Carlsbad, Calif., USA). All hFPR receptors constructs in pDONR201™ were subsequently transfected into the pEF5/FRT/V5/dest vector using the LR clonase enzyme mix (Invitrogen). Receptor constructs (pEF5/FRT/V5/dest) were used to transfect FIp-In CHO cells as described previously (Valant C et al., PNAS, 2014). Cells were selected using 500 μg/mL hydromycin to generate cell lines stably expressing each receptor construct. Cells were maintained and cultured in high glucose DMEM supplemented with 10% FBS, 16 mM HEPES and 500 μg/mL hydromycin at 37° C. under a humidified atmosphere containing 5% CO2.
# (§2) In the various assays described below, cells were plated into 96-well transparent cell culture plates at 4×10^4 cells per well, cultured overnight in serum-free media at 37° C. in 5% CO2.
# (§3) Measurement of extracellular signal regulated kinase 1 and 2 phosphorylation (pERK1/2): Initial ERK1/2 phosphorylation at Thr202/Tyr204 time-course experiments were performed to determine the time at which ERK1/2 phosphorylation was maximal after stimulation by each agonist. Cells were seeded onto transparent 96-well cell culture plates at 4×10^4 cells per well. After 6 h, cells were washed once with PBS, and then incubated in serum-free DMEM overnight, to allow FBS-stimulated phosphorylated ERK1/2 levels to subside. […] 10% (v/v) FBS was used as a positive control, with vehicle controls also included. The reaction was terminated by removal of study drugs and lysis of cells with 100 μL of SureFire lysis buffer (TGR Biosciences). Cell were lysed in SureFire lysis buffer and transferred to 384-well opaque proxiplates. Under low-light conditions, a 1:120 (v:v) dilution of AlphaScreen beads (both acceptor and donor):Surefire reaction buffer was prepared, which was mixed with the activation buffer in a ratio of 6:1 (v:v), respectively. Plates were incubated in the dark at 37° C. for 1 h before the fluorescence signal was measured by a Fusion-α plate reader (PerkinElmer Life and Analytical Sciences, Foster city, CA, USA) with standard AlphaScreen settings. Data were normalized to the maximal response elicited by 10% (v/v) FBS at the same time point.
# (§4) Receptor mediated pERK1/2 levels were determined using the AlphaScreen™ ERK1/2 SureFire™ kit, as described previously (Keov, P et al., 2014). For all experiments, 10% FBS was used as internal positive control to stimulate pERK1/2, and which the maximum responses were used for normalization of data, whilst vehicle was used as negative control.
# (§5) Data analysis: All data were analysed using GraphPad Prism 6.0 (GraphPad Software, San Deigo, Calif., USA). Where appropriate, concentration-response curves were fitted to derive the maximal agonist effect (Emax), and the ligand potency estimate (pEC50), where Emax is the maximal possible response of the system (not the agonist), basal is the basal level of response in the absence of agonist, and pEC50 is the negative logarithm of the agonist concentration that gives a response halfway between Emax and basal.
# (§6) In the present study, FIp-IN CHO cells and Gateway plasmid were obtained from Invitrogen Inc (Carlsbad, Calif., USA). The sequences for all 3 known human FPRs (hFPR1, hFPR2 and hFPR3) were amplified by PCR and cloned into the Gateway entry vector, pDONR202TM, using the BP clonase enzyme mix, according to the manufacturers' instructions. The hFPR pDONR201TM constructs were subsequently transfected into the pEF5/FRT/V5/dest vector using the LR clonase enzyme mix (Invitrogen).
# [3] = target: T3, hFPR2 (Homo sapiens, UniProt P25090); experiment: ERK1/2 phosphorylation (AlphaScreen SureFire) in hFPR2-FlpIn-CHO cells
# T3 construct: expressed in transfected cells
# T3 sequence (P25090 1-351): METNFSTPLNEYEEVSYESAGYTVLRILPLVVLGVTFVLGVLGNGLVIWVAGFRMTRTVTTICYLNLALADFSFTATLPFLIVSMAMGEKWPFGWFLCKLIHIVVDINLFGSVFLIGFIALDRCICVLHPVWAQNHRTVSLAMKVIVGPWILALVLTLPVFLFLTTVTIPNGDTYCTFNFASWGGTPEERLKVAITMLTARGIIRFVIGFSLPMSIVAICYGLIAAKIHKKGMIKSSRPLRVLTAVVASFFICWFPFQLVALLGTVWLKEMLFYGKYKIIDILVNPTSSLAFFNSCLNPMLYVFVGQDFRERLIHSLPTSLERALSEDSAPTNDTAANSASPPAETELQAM
# Source text: as §1, §2, §3, §4, §5, §6
smiles,measurement,setting,value
"CCCCC[C@H](O)/C=C/C=C\C=C\C=C\[C@@H](O)[C@@H](O)CCCC(=O)O [LxA4, lipoxin-A4]",Agonist response (ERK-phosphorylation) in hFPR3-CHO cells,[1],failed to stimulate; also recorded: without effect
same,ERK-phosphorylation at hFPR1 (in words),[2],failed to stimulate; also recorded: without effect
same,ERK-phosphorylation at hFPR2 (in words),[3],failed to stimulate; also recorded: without effect
